Source: patent US20230020663A1, “SULFONAMIDE INHIBITORS AS CTPS1 INHIBITORS” (Step Pharma S.A.S., priority 2019, published 2023)

system: human CTPS1 versus CTPS2; test: Human CTPS1 versus CTPS2 selectivity assessment by RapidFire/MS analysis; type: biochemical; conditions: Table 26; RapidFire/MS IC50 ratio
Experimental: Human CTPS1 versus CTPS2 Selectivity Assessment by RapidFire/MS Analysis.
The enzyme inhibitory activities against each target isoform of interest may be determined for the compounds of the invention using an optimised RapidFire high-throughput mass spectrometry (RF/MS) assay format. RF/MS assays for both human CTPS1 and CTPS2 may be performed in assay buffer consisting of 50 mM HEPES (Merck), 20 mM MgCl2, 5 mM KCl, 1 mM DTT, 0.01% Tween-20, pH to 8.0 accordingly. Human full-length active C-terminal FLAG-His-tag CTPS1 (UniProtKB—P17812, CTPS[1-591]-[…]) may be obtained from Proteros biostructures GmbH. Human full length active C-terminal FLAG-His-Avi tagged CTPS2 (UniProtKB-Q9NRF8, CTPS2 [1-586]-[…]) may be obtained from Harker Bio.
Human CTPS (1 or 2) protein may be prepared in 1× assay buffer to the final working protein concentration required for the reaction. A 2 uL volume per well of 2×CTPS (1 or 2) protein may be mixed with 40 nL of compound using acoustic (ECHO) delivery and incubated for 10 minutes at 25° C. Each isoform enzymatic reaction may be subsequently initiated by addition of 2 uL per well of a 2× substrate mix in assay buffer. For hCTPS1: ATP (0.3 mM), UTP (0.2 mM), GTP (0.07 mM) and L-glutamine (0.1 mM). For hCTPS2: ATP (0.1 mM), UTP (0.04 mM), GTP (0.03 mM) and L-glutamine (0.1 mM). Each mixture may be incubated for an appropriate amount of time per isoform within the determined linear phase of the reaction at 25′C. A 60 uL volume of stop solution (1% formic acid with 0.5 uM ^13C9-^15N3-CTP in H2O) may be added and the plate immediately heat-sealed and centrifuged for 10 minutes at 4,000 rpm. Following centrifugation, plates may be loaded onto the Agilent RapidFire microfluidic solid phase extraction system coupled to an API4000 triple quadrupole mass spectrometer (RF/MS) for analysis.
In all cases, the enzyme converts UTP to CTP. Highly specific and sensitive multiple reaction monitoring (MRM) MS methods may be optimised for the detection of the enzymatic reaction product, CTP, and the stable isotope labelled product standard ^13C9-^15N3-CTP. Readout for data analysis may be calculated as the ratio between the peak area of the product CTP and the internal standard ^13C9-^15N3-CTP. For data reporting, the following equation may be used: […]
For each screening plate, the means of the negative (DMSO) and positive control values were used for the calculation of the respective assay window (S/B) and Z′ values. The median of the respective control values was used for calculation of percent inhibition according to the following equation: […]
Percentage inhibition was then plotted against compound concentration, and the 50% inhibitory concentration (IC50) was determined from the resultant concentration-response curve.
Fold selectivity between CTPS1 and CTPS2 was subsequently calculated according to the following equation: […]

SMILES | Selectivity (fold selectivity between CTPS1 and CTPS2)
CCOc1cncc(-c2ccc(NC(=O)C(F)(CC)c3ccnc(NS(=O)(=O)C4CC4)n3)nc2)n1 (racemic) [Example P112, 2-(2-(Cyclopropanesulfonamido)pyrimidin-4-yl)-N-(5-(6-ethoxypyrazin-2-yl)pyridin-2-yl)-2-fluorobutanamide] | ++ (>30-60 fold (++))
CCOc1cncc(-c2ccc(NC(=O)C(F)(CC)c3ccnc(NS(=O)(=O)C4CC4)n3)nc2)n1 (single isomer, unassigned) [Example P113, 2-(2-(cyclopropanesulfonamido)pyrimidin-4-yl)-N-(5-(6-ethoxypyrazin-2-yl)pyridin-2-yl)-2-fluorobutanamide] | + (2-30 fold (+))
CCOc1cncc(-c2ccc(NC(=O)C(F)(CC)c3ccnc(NS(=O)(=O)C4CC4)n3)nc2)n1 (single isomer, unassigned) [Example P114, 2-(2-(cyclopropanesulfonamido)pyrimidin-4-yl)-N-(5-(6-ethoxypyrazin-2-yl)pyridin-2-yl)-2-fluorobutanamide] | +++ (>60 fold (+++))
CCOc1cncc(-c2ccc(NC(=O)C(F)(CC)c3cncc(NS(=O)(=O)C4CC4)n3)nc2)n1 (single isomer, unassigned) [Example P206] | +++ (>60 fold (+++))
CCOc1cncc(-c2ccc(NC(=O)C(F)(CC)c3cncc(NS(=O)(=O)C4CC4)n3)nc2)n1 (single isomer, unassigned) [Example P207] | + (2-30 fold (+))
CCC(C(=O)Nc1ccc(-c2cncc(Cl)c2)cc1)c1ccnc(NS(=O)(=O)C2CC2)n1 (stereo not drawn) [Example P1, N-(4-(5-Chloropyridin-3-yl)phenyl)-2-(2-(cyclopropanesulfonamido)pyrimidin-4-yl)butanamide] | + (2-30 fold (+))
CCOc1cncc(-c2ccc(NC(=O)C3(c4ccnc(NS(=O)(=O)C5CC5)n4)CCCC3)cc2)n1 [Example P2, 1-(2-(Cyclopropanesulfonamido)pyrimidin-4-yl)-N-(4-(6-ethoxypyrazin-2-yl)phenyl)cyclopentanecarboxamide] | +++ (>60 fold (+++))
CC(C)Oc1cncc(-c2ccc(NC(=O)Cc3ccnc(NS(=O)(=O)C4CC4)n3)c(F)c2)n1 [Example P12] | ++ (>30-60 fold (++))
O=C(Cc1ccnc(NS(=O)(=O)C2CC2)n1)Nc1ccc(-c2cccnc2)cc1 [Example P16] | ++ (>30-60 fold (++))
CCOc1cncc(-c2ccc(NC(=O)Cc3ccnc(NS(=O)(=O)C4CC4)n3)cc2)n1 [Example P18, 2-(2-(Cyclopropanesulfonamido)pyrimidin-4-yl)-N-(4-(6-ethoxypyrazin-2-yl)phenyl)acetamide] | ++ (>30-60 fold (++))
CC(C)Oc1cncc(-c2ccc(NC(=O)Cc3ccnc(NS(=O)(=O)C4CC4)n3)cc2)n1 [Example P21] | ++ (>30-60 fold (++))
CCOc1cncc(-c2ccc(NC(=O)C(C)(C)c3ccnc(NS(=O)(=O)C4CC4)n3)nc2)n1 [Example P31] | +++ (>60 fold (+++))
CCOc1cncc(-c2ccc(NC(=O)C(C)(C)c3ccnc(NS(=O)(=O)C4CC4)n3)c(C#N)c2)n1 [Example P34] | + (2-30 fold (+))
CCOc1cncc(-c2ccc(NC(=O)C(C)(C)c3ccnc(NS(=O)(=O)C4CC4)n3)c(F)c2)n1 [Example P38] | + (2-30 fold (+))
CC(C)Oc1cncc(-c2ccc(NC(=O)C(C)(C)c3ccnc(NS(=O)(=O)C4CC4)n3)c(F)c2)n1 [Example P39] | + (2-30 fold (+))
CC(C)(C(=O)Nc1ccc(-c2cccnc2)cc1)c1ccnc(NS(=O)(=O)C2CC2)n1 [Example P59] | + (2-30 fold (+))
CCOc1cncc(-c2ccc(NC(=O)C(C)(C)c3nc(NS(=O)(=O)C4CC4)ncc3F)cc2)n1 [Example P68] | ++ (>30-60 fold (++))
CCOc1cncc(-c2ccc(NC(=O)C(C)(C)c3nc(NS(=O)(=O)C4CC4)ncc3C)cc2)n1 [Example P70] | + (2-30 fold (+))
CCOc1cncc(-c2ccc(NC(=O)C(C)(C)c3ccnc(NS(=O)(=O)CC)n3)cc2)n1 [Example P74] | ++ (>30-60 fold (++))
CCOc1cncc(-c2ccc(NC(=O)C(C)(C)c3ccnc(NS(C)(=O)=O)n3)nc2)n1 [Example P76] | ++ (>30-60 fold (++))
CCOc1cncc(-c2ccc(NC(=O)C3(c4ccnc(NS(=O)(=O)C5CC5)n4)CC3)cc2)n1 [Example P83] | +++ (>60 fold (+++))
CCC(C(=O)Nc1ccc(-c2cncc(C(F)(F)F)n2)cn1)c1ccnc(NS(=O)(=O)C2CC2)n1 (stereo not drawn) [Example P87] | ++ (>30-60 fold (++))
CCOc1cncc(-c2ccc(NC(=O)C(CC)c3ccnc(NS(=O)(=O)C4CC4)n3)nc2)n1 (stereo not drawn) [Example P88] | +++ (>60 fold (+++))
CCC(C(=O)Nc1ccc(-c2cncc(OC(C)C)n2)cn1)c1ccnc(NS(=O)(=O)C2CC2)n1 (stereo not drawn) [Example P89] | +++ (>60 fold (+++))
CCC(C(=O)Nc1ccc(-c2cncc(OC)n2)cc1F)c1ccnc(NS(=O)(=O)C2CC2)n1 (stereo not drawn) [Example P95] | + (2-30 fold (+))
CCOc1cncc(-c2ccc(NC(=O)C(CC)c3ccnc(NS(=O)(=O)C4CC4)n3)c(F)c2)n1 (stereo not drawn) [Example P96] | + (2-30 fold (+))

same assay, conditions: Table 27; RapidFire/MS IC50 ratio

SMILES | Selectivity (fold selectivity between CTPS1 and CTPS2)
CCOc1cncc(-c2ccc(NC(=O)C3(c4ccnc(NS(=O)(=O)C5CC5)n4)CCC(O)CC3)nc2)n1 (single isomer, unassigned) [Example P227, 1-(2-(cyclopropanesulfonamido)pyrimidin-4-yl)-N-(5-(6-ethoxypyrazin-2-yl)pyridin-2-yl)-4-hydroxycyclohexanecarboxamide] | +++ (>60 fold (+++))
CCOc1cncc(-c2ccc(NC(=O)C3(c4ccnc(NS(=O)(=O)C5CC5)n4)CCC(O)CC3)nc2)n1 (single isomer, unassigned) [Example P228, 1-(2-(cyclopropanesulfonamido)pyrimidin-4-yl)-N-(5-(6-ethoxypyrazin-2-yl)pyridin-2-yl)-4-hydroxycyclohexanecarboxamide] | + (2-30 fold (+))
CCOc1cncc(-c2ccc(NC(=O)C3(c4ccnc(NS(=O)(=O)C5CC5)n4)CCC(N(C)C)CC3)nc2)n1 (single isomer, unassigned) [Example P229, 1-(2-(cyclopropanesulfonamido)pyrimidin-4-yl)-4-(dimethylamino)-N-(5-(6-ethoxypyrazin-2-yl)pyridin-2-yl)cyclohexane-1-carboxamide] | +++ (>60 fold (+++))
CCOc1cncc(-c2ccc(NC(=O)C3(c4ccnc(NS(=O)(=O)C5CC5)n4)CCC(N(C)C)CC3)nc2)n1 (single isomer, unassigned) [Example P230, 1-(2-(cyclopropanesulfonamido)pyrimidin-4-yl)-4-(dimethylamino)-N-(5-(6-ethoxypyrazin-2-yl)pyridin-2-yl)cyclohexane-1-carboxamide] | +++ (>60 fold (+++))
